Reference: PMC3436903 (Chembiochem : a European journal of chemical biology, 2011)

Experiment: pH-dependence of keto acid-lactol equilibrium by 1H-NMR in D2O
Format: physicochemical

For `Nc1ncnc2c1ncn2[C@@H]1O[C@H](CNS(=O)(=O)NC(=O)CCC(=O)c2ccccc2C(=O)O)[C@@H](O)[C@H]1O` [Inhibitor 5], the “pD range of rapid equilibration of keto acid and lactol forms” value (intermediate chemical shifts) was 1.32–4.32 pD, the “pD at which the lactol form is observed” value (ketone α-protons at ≈2.45 ppm) was 0.89 pD and the “pD at which the keto acid form is observed” value (ketone α-protons at ≈3.2 ppm) was no less than 5.70 pD.
